Assays:
Type III PDE = target: T1, Type III PDE (Rattus norvegicus, UniProt Q62865); assay: PDE III inhibitory activity (Test Example 1); assay type: biochemical; settings: for IC50: Table I, PDE III partially purified from rat blood platelets, 3H-cAMP substrate; for PDE III inhibitory activity relative to that of the racemate: ratio to racemate
T1 construct: from tissue; host or cells: rat blood platelets
T1 sequence (Q62865 1-1141): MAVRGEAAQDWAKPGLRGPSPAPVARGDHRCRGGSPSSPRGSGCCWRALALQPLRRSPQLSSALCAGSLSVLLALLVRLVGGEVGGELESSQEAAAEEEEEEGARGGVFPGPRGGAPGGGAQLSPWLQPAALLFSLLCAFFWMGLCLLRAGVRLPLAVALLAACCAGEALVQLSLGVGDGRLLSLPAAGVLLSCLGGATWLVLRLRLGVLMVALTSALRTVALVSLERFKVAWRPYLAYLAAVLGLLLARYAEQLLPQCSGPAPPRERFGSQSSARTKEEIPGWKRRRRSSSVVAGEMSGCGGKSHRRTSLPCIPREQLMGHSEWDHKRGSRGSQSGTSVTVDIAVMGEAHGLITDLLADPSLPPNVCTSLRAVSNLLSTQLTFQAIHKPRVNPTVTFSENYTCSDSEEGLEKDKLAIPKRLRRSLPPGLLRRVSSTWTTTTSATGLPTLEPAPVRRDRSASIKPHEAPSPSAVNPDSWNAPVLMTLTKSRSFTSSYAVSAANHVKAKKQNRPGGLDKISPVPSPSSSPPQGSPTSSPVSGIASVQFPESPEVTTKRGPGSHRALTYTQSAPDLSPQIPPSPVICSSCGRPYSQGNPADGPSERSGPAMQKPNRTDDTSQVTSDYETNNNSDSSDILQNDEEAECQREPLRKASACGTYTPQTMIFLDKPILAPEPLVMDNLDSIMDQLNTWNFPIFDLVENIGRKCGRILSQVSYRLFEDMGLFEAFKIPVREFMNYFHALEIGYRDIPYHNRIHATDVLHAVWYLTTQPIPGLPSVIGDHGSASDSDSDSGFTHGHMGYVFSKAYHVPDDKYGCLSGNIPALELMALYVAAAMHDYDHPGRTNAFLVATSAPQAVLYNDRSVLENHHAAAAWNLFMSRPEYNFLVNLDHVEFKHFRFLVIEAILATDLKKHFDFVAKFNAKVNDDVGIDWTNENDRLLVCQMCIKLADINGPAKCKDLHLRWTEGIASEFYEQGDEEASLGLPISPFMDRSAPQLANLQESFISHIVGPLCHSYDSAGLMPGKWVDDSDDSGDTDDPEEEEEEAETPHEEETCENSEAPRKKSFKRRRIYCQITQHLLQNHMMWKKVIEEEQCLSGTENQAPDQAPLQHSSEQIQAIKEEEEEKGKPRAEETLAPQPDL
Method: (§1) To investigate the PDE inhibitory activity and selectivity of the compound, Type I, Type III, Type IV and Type V, that is, four types of PDE isozymes were prepared Trends Pharmacol. Sci. (TiPS), vol. 12, 19-27(1991). The Type I PDE used was one purchased from Sigma. Further, the Type III, Type IV and Type V PDE isozymes used were those partially purified from the blood platelets (Type III and Type V) or neutrophils (Type IV) taken from rats. Each enzyme source was homogenized in a buffer (pH6.5) containing 20 mM Bis-Tris, EDTA (ethylene diamine tetraacetate) 2 mM, PMSF (phenylmethylsulfonyl fluoride) 0.1 mM, 2-mercaptoethanol 5 mM, pepstatin 0.001 mM, and leupeptin 0.01 mM and centrifuged at 30000×G for 30 minutes. The centrifuged supernatent was passed through an ion exchange column (Q Sepharose Fast Flow, made by Pharmacia) and eluted by 0-1M sodium acetate. The partially purified isozyme was identified by investigating the effects of known selective inhibitors.
(§2) The tested compound was dissolved in DMSO (dimethylsulfoxide) and added to 50 mM tris-HCl buffer containing 5 mM […]. To this reaction solution, the above PDE isozyme and ^3H-cAMP (when Type III or Type IV of PDE) or ^3H-cGMP (when Type I or Type V of PDE) was added, as a substrate, and the mixture reacted at 30° C. for 30 minutes. After the reaction, the reaction mixture was placed in a 100° C. boiling solution for 5 minutes to stop the reaction. The nucleotide produced by the PDE was decomposed by 5′-nucleotidase into ^3H-adenosine or ^3H-guanosine. The unreacted substrate and reaction product were passed through an ion exchange column (QAE Sephadex, made by Pharmacia)to separate them. The radioactivity of the eluted ^3H-nucleoside was measured by a liquid sintillation counter. The inhibitory activity of each tested compound was indicated by the IC50 value (μM). The inhibitory activity against Type IV was shown in Table 2, while the inhibitory activity against Type III was shown in Table 3. Further, the inhibitory activity of each test compound to Type I and Type V was less than 1/10 to Type IV.

Type IV PDE [1] = system: T2, Type IV PDE; assay: PDE IV inhibitory activity (Test Example 1); assay type: biochemical, rat; settings: for IC50: 3H-cAMP substrate; for PDE IV inhibitory activity relative to that of the racemate: ratio to racemate
T2 construct: PDE IV partially purified from rat neutrophils, 3H-cAMP substrat; PDE IV from rat neutrophils, 3H-cAMP substrate; other: ratio to racemate
Method: as §1, §2

Type IV PDE [2] = assay: PDE IV inhibitory activity (Test Example 1); assay type: biochemical, rat; settings: PDE IV versus PDE III, compared with the racemate
Method: as §1, §2

[3] = listed as The compound of the present invention
[4] = Table I, PDE IV partially purified from rat neutrophils
[5] = Table II, PDE IV from rat neutrophils

| Compound | IC50 (Type III PDE) | PDE III inhibitory activity relative to that of the racemate (Type III PDE) | PDE III inhibitory activity relative to that of the racemate (Type III PDE; [3]) | IC50 (Type IV PDE [1]; [4]) | IC50 (Type IV PDE [1]; [5]) | PDE IV inhibitory activity relative to that of the racemate (Type IV PDE [1]) | PDE IV inhibitory activity relative to that of the racemate (Type IV PDE [1]; [3]) | selectivity with respect to PDE IV (Type IV PDE [2]) |
| --- | --- | --- | --- | --- | --- | --- | --- | --- |
| COc1ccc(NC2=C(C)C(=O)CC2)cc1O[C@@H]1C[C@H]2CC[C@@H]1C2 [(−)-isomer, (−)-3-[3-[(1R,2R,4S)-bicyclo[2.2.1]hept-2-yloxy]-4-methoxyanilino]-2-methyl-2-cyclopenten-1-one] | 9.03 µM | less than half of that of the racemate | less than ½ | 0.12 µM | 0.12 µM | about twice that of the racemate | at least two times that of a racemate | high |
| COc1ccc(NC2=C(C)C(=O)CC2)cc1O[C@@H]1C[C@H]2CC[C@@H]1C2 (racemic) [(±)-isomer, (±)-3-[3-[(1RS,2RS,4SR)-bicyclo[2.2.1]hept-2-yloxy]-4-methoxyanilino]-2-methyl-2-cyclopenten-1-one, reference compound] | 3.86 µM | – | – | 0.27 µM | 0.27 µM | – | – | – |
| COc1ccc(NC2=C(C)C(=O)CC2)cc1O[C@H]1C[C@@H]2CC[C@H]1C2 [(+)-isomer, (+)-3-[3-[(1S,2S,4R)-bicyclo[2.2.1]hept-2-yloxy]-4-methoxyanilino]-2-methyl-2-cyclopenten-1-one] | 1.57 µM | twice or more of that of the racemate | – | 0.36 µM | 0.36 µM | about ¾ | – | low |

Source: patent publication US6943195B2, “Cycloalkenone derivative” (Nikken Chemicals Co., Ltd, priority 2001, dated 2005)
